In one assay the target is T1, human EDG-2 (Homo sapiens, UniProt Q92633).
T1 construct: expressed in transfected cells; host or cells: Chinese hamster ovary (CHO) cells
Nature of the assay: Evaluation of EDG-2 antagonistic activity by monitoring the change of intracellular calcium ion concentration. Format: cell-based. Conditions: CHO cells overexpressing human EDG-2 gene; LPA 100 nM; intracellular calcium (Fura2-AM). The method, then: Evaluation of EDG-2 Antagonistic Activity by Monitoring the Change of Intracellular Calcium Ion Concentration:
The EDG-2 antagonistic activity was evaluated by using Chinese hamster ovary (CHO) cells which overexpressed human EDG-2 gene. The EDG-2-expressing cells were cultured with Ham's F12 medium (manufactured by GIBCO BRL, No. 11765-047) containing 10% FBS (fetal bovine serum), penicillin/streptomycin and blasticidin (5 μg/ml). Firstly, in order to incorporate Fura2-AM (manufactured by Dojindo, No. 348-05831) into the cells, the cells were incubated in 5 μM Fura2-AM solution (10% FBS, 20 mM HEPES buffer (pH 7.4), 2.5 mM probenecid (manufactured by Sigma, No. P-8761)-containing Ham's F12 medium) at 37° C. for 60 minutes. […] A plate was set in a fluorescence drug screening system (manufactured by Hamamatsu Photonics K.K., FDSS-2000, FDSS-6000) and intracellular calcium ion concentration was measured for 30 seconds without stimulation, and a solution of the compound of present invention was added. Five minutes thereafter, LPA (final concentration: 100 nM) was added, and the intracellular calcium ion concentration before and after the addition at the interval of 3 seconds (excitation wavelength: 340 nm and 380 nm, fluorescence wavelength: 500 nm). […]

Assay [1] relates to urethral pressure of rats. Nature of the assay: Effect on urethral pressure of rats (in vivo). Conditions: anesthetized male CD(SD)IGS rats, intravenous, dose of 0.1 mg/kg to 1 mg/kg. More on the design: species or system rat.
From the text: Effect on Urethral Pressure of Rats (in vivo):
Male CD(SD)IGS rats (Japan Charles River, 8 to 9-week-old at the use) were anesthetized by subcutaneous administration of urethane (1.2 g/kg). After dissection at the cervical midline, a jugular vein catheter for compound administration and an artery catheter for blood pressure measurement were inserted. Next, after dissection at the hypogastric midline, the urethra was ligated under the pubic bone. An urethra catheter for urethral pressure measurement was inserted into the urethra from the dissected the top of the bladder, and ligated and fixed at the bladder neck. Each of the urethra catheter and the artery catheter was connected with a pressure-transducer, and the urethral pressure and blood pressure were measured. […] Then, the test compound was intravenously administered, and the urethral pressure and blood pressure were measured for 20 minutes. […]
The test compound was administered at respective doses. […] For the evaluation of the effect of the test compound on the urethral pressure, the values subtracting the urethral pressure before the administration from the measured urethral pressures every 2 minutes after the administration were obtained and a graph of the change with time (decreased amount of the urethral pressure from the base line) was prepared.

T1 sequence (Q92633 whole entry): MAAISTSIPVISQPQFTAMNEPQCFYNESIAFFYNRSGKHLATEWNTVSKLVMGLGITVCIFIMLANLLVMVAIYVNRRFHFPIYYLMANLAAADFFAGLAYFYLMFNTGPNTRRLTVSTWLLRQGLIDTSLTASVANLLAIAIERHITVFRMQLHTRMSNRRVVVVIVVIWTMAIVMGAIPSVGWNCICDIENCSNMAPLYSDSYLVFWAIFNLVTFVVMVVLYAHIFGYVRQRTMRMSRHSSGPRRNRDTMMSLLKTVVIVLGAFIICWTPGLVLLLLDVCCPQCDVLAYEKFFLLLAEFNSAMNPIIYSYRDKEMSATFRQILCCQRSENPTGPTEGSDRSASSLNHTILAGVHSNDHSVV

Regarding `COc1cc([C@@H](O)[C@@H](CCCc2ccccc2)Cc2ccc(CC(=O)O)cc2)cc(OC)c1OC` [Example 20(2), (4-{(2S)-2-[(S)-hydroxy(3,4,5-trimethoxyphenyl)methyl]-5-phenylpentyl}phenyl)acetic acid], the IC50 at human EDG-2 worked out at 40 nM. In addition, in assay [1], the “change of the urethral pressure after administration” value was “significantly remarkable decrease of the urethral pressure” and the “maximum decreased amount of the urethral pressure, of the absolute value of the urethral pressure (pressure before administration - base line value after death)” value is reported as 30 to 40%.

The values are drawn from patent US7875745B2, “Compounds having lysophosphatidic acid receptor antagonism and uses thereof” (Ono Pharmaceutical Co., Ltd., priority 2003, dated 2011).
